Measured values taken from patent US20250368625A1, “PIPERAZINES” (Grünenthal GmbH, priority 2024, published 2025).

Target: T1, human SSTR4 (Homo sapiens, UniProt P31391)
T1 construct: expressed in transfected cells; host or cells: CHO-K1
Assay: hSSTR4 cAMP assay (cAMP accumulation, LANCE Ultra cAMP kit, CHO-K1 human SSTR4 Gi cell line)
Format: cell-based
Settings: functional agonism, forskolin 10 μM stimulated CHO-K1 human SSTR4 Gi cells, 30 min at 25° C., at least duplicate, averaged; read-out: hSSTR4 EC50
Description: cAMP accumulation assay using a CHO-K1 human SSTR4 Gi cell line.
Quantification of intracellular cAMP was performed using the LANCE Ultra cAMP assay kit from Revvity according to the manufacturer's instructions. CHO-K1 human SSTR4 Gi cell were either seeded in a density of 3K cells per well into a 384 well plate and incubated at 37° C. and 5% CO2 for 18-20 h or a stock of frozen cells were defrosted and seeded in a density of 5K cells per well without any further cultivation directly prior to the assay in a total volume of 5 μL in stimulation buffer. For pre-cultured cells, medium was replaced with 5 μL stimulation buffer before the assay. Cells were then stimulated with forskolin (final concentration 10 μM) and test compound (SSTR4 agonist) in increasing concentrations in duplicates for 30 min at 25° C. After stimulation, cells were lysed by addition of 10 μL of detection buffer (provided with the kit) and cell lysates were further diluted to ensure final cAMP concentrations fitted well into the dynamic range of the test kit. 10 μL of the diluted lysates were then added to respective wells of an OptiPlate-384 microplate. Thereafter, 5 μL of 4× Eu-cAMP tracer working solution was added, followed by addition of 5 μL of ULight-anti-cAMP working solution. The plate was then incubated for 1 h at 25° C. before reading on a TR-FRET microplate instrument. Data were normalized to cAMP high (forskolin only) and low control (forskolin+100 nM SST14) before fitting to a 4-Paramter logistic function.
All data was generated according to the cAMP assay conditions described above in at least duplicate and results are averaged and rounded to two significant figures.

T1 sequence (P31391 whole entry): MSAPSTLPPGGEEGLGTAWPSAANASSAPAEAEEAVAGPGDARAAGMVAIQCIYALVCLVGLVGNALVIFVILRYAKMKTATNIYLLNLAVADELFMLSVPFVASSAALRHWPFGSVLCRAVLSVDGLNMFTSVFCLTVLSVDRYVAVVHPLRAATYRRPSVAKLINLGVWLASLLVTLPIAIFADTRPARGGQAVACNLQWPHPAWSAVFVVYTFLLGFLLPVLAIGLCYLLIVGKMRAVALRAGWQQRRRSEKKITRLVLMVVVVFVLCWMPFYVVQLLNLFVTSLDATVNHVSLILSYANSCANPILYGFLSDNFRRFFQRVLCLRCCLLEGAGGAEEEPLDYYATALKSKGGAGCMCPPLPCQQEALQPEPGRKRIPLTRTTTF

Row | SMILES | EC50 [pM]
1 | Cc1cccn2c(C(C)(C)NC(=O)[C@@H]3CNCCN3C3CCC(F)(F)CC3)ncc12 [SC-032, (S)-1-(4,4-difluorocyclohexyl)-N-(2-(8-methylimidazo[1,5-a]pyridin-3-yl)propan-2-yl)piperazine-2-carboxamide] | 230
2 | Cc1cccn2c(C(C)(C)NC(=O)[C@@H]3CNCCN3CC3(C)CCOCC3)ncc12 [SC-037, (S)-N-(2-(8-methylimidazo[1,5-a]pyridin-3-yl)propan-2-yl)-1-((4-methyltetrahydro-2H-pyran-4-yl)methyl)piperazine-2-carboxamide] | 1700
3 | Cc1cccc2c(C(C)(C)NC(=O)[C@@H]3CNCCN3C(C)C)n[nH]c12 [SC-040, (S)-1-isopropyl-N-(2-(7-methyl-1H-indazol-3-yl)propan-2-yl)piperazine-2-carboxamide] | 390
4 | CCN1CCNC[C@H]1C(=O)NC(C)(C)c1n[nH]c2c(C)cccc12 [SC-041, (S)-1-ethyl-N-(2-(7-methyl-1H-indazol-3-yl)propan-2-yl)piperazine-2-carboxamide] | 220
5 | Cc1cccn2c(C(C)(C)NC(=O)[C@@H]3CN(C)CCN3)ncc12 [SC-043, (S)-4-methyl-N-(2-(8-methylimidazo[1,5-a]pyridin-3-yl)propan-2-yl)piperazine-2-carboxamide] | 350000
6 | Cc1cccn2c(C(C)(C)NC(=O)[C@@H]3CN(C)CCN3Cc3cnn(C)c3)ncc12 [SC-044, (S)-4-methyl-1-((1-methyl-1H-pyrazol-4-yl)methyl)-N-(2-(8-methylimidazo[1,5-a]pyridin-3-yl)propan-2-yl)piperazine-2-carboxamide] | 6100

The next lines start with the values.

Row | EC50 [pM] | SMILES
7 | 12000 | Cc1cccn2c(C(C)(C)NC(=O)[C@@H]3CNCCN3CC3(C)COC3)ncc12 [SC-031, (S)-N-(2-(8-methylimidazo[1,5-a]pyridin-3-yl)propan-2-yl)-1-((3-methyloxetan-3-yl)methyl)piperazine-2-carboxamide]
8 | 380 | Cc1cccn2c(C(C)(C)NC(=O)[C@@H]3CNCCN3CC3CCC3)ncc12 [SC-033, (S)-1-(cyclobutylmethyl)-N-(2-(8-methylimidazo[1,5-a]pyridin-3-yl)propan-2-yl)piperazine-2-carboxamide]
9 | 250 | Cc1cccn2c(C(C)(C)NC(=O)[C@@H]3CNCCN3CC(C)C)ncc12 [SC-034, (S)-1-isobutyl-N-(2-(8-methylimidazo[1,5-a]pyridin-3-yl)propan-2-yl)piperazine-2-carboxamide]
10 | 350 | Cc1cccn2c(C(C)(C)NC(=O)[C@@H]3CNCCN3C(C)C)ncc12 [SC-035, (S)-1-isopropyl-N-(2-(8-methylimidazo[1,5-a]pyridin-3-yl)propan-2-yl)piperazine-2-carboxamide]
11 | 90 | Cc1cccn2c(C(C)(C)NC(=O)[C@@H]3CNCCN3Cc3ccnc(C(F)(F)F)c3)ncc12 [SC-036, (S)-N-(2-(8-methylimidazo[1,5-a]pyridin-3-yl)propan-2-yl)-1-((2-(trifluoromethyl)pyridin-4-yl)methyl)piperazine-2-carboxamide]
12 | 600 | Cc1cccn2c(C(C)(C)NC(=O)[C@@H]3CNCCN3Cc3cnc(C(F)(F)F)nc3)ncc12 [SC-038, (S)-N-(2-(8-methylimidazo[1,5-a]pyridin-3-yl)propan-2-yl)-1-((2-(trifluoromethyl)pyrimidin-5-yl)methyl)piperazine-2-carboxamide]
13 | 1400 | COCC(C)(C)CN1CCNC[C@H]1C(=O)NC(C)(C)c1ncc2c(C)cccn12 [SC-039, (S)-1-(3-methoxy-2,2-dimethylpropyl)-N-(2-(8-methylimidazo[1,5-a]pyridin-3-yl)propan-2-yl)piperazine-2-carboxamide]
14 | 1300 | Cc1cccn2c(C(C)(C)NC(=O)[C@@H]3CNCCN3CC3COC3)ncc12 [SC-042, (S)-N-(2-(8-methylimidazo[1,5-a]pyridin-3-yl)propan-2-yl)-1-(oxetan-3-ylmethyl)piperazine-2-carboxamide]
